Laboratory results from ChEMBL document CHEMBL1140962, “An efficient tool for identifying inhibitors based on 3D-QSAR and docking using feature-shape pharmacophore of biologically active conformation--a case study with CDK2/cyclinA” (Eur J Med Chem, 2008).

Target: Cyclin-dependent kinase 2 (Homo sapiens, UniProt P24941)
Experiment: Inhibition of CDK2/Cyclin A

Structure (SMILES) | IC50 (read-out: IC50) [nM] | IC50 (read-out: pIC50 (converted)) [nM]
O=C(Nc1cc(Cc2ccccc2)[nH]n1)c1ccc(Br)cc1 | > 10000 | –
COc1ccccc1C(=O)Nc1cc(C2CC2)[nH]n1 | > 10000 | –
O=C(Cc1ccc(Cc2cccs2)cc1)Nc1cc(C2CC2)n[nH]1 | 3 | 3
O=C(Cc1ccc(-c2ccccc2)c(F)c1)Nc1cc(C2CC2)n[nH]1 | 4 | 4
CC(C)(C)c1cc(NC(=O)c2ccc(Br)cc2)n[nH]1 | > 10000 | –
O=C(Nc1cc(C2CC2)[nH]n1)c1c(Cl)cccc1Cl | > 10000 | –
CO[C@@H](C(=O)Nc1cc(C2CC2)n[nH]1)c1ccccc1 | > 10000 | –
O=C(Nc1cc(C2CC2)[nH]n1)c1ccccc1Cl | 10000 | –
O=C(Nc1cc(C2CCCCC2)[nH]n1)c1ccc(Br)cc1 | 10000 | –
O=C(Nc1cc(-c2ccccc2)[nH]n1)c1ccc(Br)cc1 | > 10000 | –
Cc1cc(CC(=O)Nc2cc(C3CC3)[nH]n2)ccc1-c1ccccc1 | 9 | 8.99
CCCC(=O)Nc1cc(C)[nH]n1 | > 10000 | –
